Assay results from ChEMBL document CHEMBL1833829, “Development of 2-substituted-N-(naphth-1-ylmethyl) and N-benzhydrylpyrimidin-4-amines as dual cholinesterase and Aβ-aggregation inhibitors: Synthesis and biological evaluation” (Bioorg Med Chem Lett, 2011).

Assays:
Acetylcholinesterase = Acetylcholinesterase (Homo sapiens, UniProt P22303)
Description: Inhibition of human AChE by Ellman's assay

Cholinesterase [1] = target: T1, Cholinesterase (Equus caballus, UniProt P81908)
Description: (§1) Inhibition of equine BuChE by Ellman's method

Cholinesterase [2] = target: T1, Cholinesterase; remark: listed apart in the source
Description: as §1

Chain of Acetylcholinesterase (P22303 whole entry): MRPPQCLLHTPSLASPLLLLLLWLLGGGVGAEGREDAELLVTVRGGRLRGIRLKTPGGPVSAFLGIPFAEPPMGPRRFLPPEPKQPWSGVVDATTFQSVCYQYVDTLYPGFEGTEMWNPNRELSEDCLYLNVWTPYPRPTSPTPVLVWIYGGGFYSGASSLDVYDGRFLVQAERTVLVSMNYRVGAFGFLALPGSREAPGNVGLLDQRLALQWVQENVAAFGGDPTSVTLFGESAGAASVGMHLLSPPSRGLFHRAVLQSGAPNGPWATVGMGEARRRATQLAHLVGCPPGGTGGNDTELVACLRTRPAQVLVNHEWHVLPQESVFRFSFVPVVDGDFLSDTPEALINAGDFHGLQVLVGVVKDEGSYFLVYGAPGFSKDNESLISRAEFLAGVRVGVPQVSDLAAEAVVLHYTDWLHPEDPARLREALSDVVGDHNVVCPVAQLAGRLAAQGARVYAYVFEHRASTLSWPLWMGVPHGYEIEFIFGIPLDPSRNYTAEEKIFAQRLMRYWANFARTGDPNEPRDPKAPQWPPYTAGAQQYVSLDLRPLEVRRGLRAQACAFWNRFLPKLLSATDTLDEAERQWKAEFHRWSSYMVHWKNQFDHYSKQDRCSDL
T1 sequence (P81908 whole entry): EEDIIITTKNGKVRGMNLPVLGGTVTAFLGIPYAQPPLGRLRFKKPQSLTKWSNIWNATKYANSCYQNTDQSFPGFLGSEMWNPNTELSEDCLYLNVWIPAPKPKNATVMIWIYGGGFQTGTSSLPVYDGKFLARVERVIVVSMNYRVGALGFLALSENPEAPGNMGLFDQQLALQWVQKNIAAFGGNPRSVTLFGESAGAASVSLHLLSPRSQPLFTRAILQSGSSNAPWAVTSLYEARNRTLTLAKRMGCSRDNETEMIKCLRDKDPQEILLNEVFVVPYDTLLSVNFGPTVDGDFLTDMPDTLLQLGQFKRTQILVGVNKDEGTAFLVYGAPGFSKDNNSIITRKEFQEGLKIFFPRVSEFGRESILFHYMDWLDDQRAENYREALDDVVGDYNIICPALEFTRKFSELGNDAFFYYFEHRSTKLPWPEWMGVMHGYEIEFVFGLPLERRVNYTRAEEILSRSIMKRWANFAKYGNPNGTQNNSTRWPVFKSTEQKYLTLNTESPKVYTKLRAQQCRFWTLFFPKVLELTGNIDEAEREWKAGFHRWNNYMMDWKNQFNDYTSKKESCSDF

Row | Compound | IC50 (Acetylcholinesterase) [µM] | IC50 (Cholinesterase [1]) [µM] | IC50 (Cholinesterase [2]) [µM]
1 | CCCN1CCN(c2nccc(NCc3cccc4ccccc34)n2)CC1 | 19 | 18.1 | –
2 | CC(C)(C)OC(=O)N1CCN(c2nccc(NCc3cccc4ccccc34)n2)CC1 | 50.8 | > 100 | –
3 | CC(=O)N1CCN(c2nccc(NCc3cccc4ccccc34)n2)CC1 | 13.8 | 32.9 | –
4 | CN1CCN(c2nccc(NC(c3ccccc3)c3ccccc3)n2)CC1 | 13.7 | 23.8 | –
5 | c1ccc2c(CNc3ccnc(N4CCNCC4)n3)cccc2c1 | 17.5 | 25.4 | –
6 | OCCN1CCN(c2nccc(NCc3cccc4ccccc34)n2)CC1 | 9.8 | 17.9 | –
7 | CC1CCN(c2nccc(NC(c3ccccc3)c3ccccc3)n2)CC1 | 32.2 | 33.8 | –
8 | c1ccc(C(Nc2ccnc(N3CCN(C4CCCCC4)CC3)n2)c2ccccc2)cc1 | 10 | 7.6 | –
9 | CC(C)N1CCN(c2nccc(NCc3cccc4ccccc34)n2)CC1 | 15.8 | 7.6 | –
10 | c1ccc2c(CNc3ccnc(N4CCN(C5CCCCC5)CC4)n3)cccc2c1 | 8 | 3.9 | –
11 | CC(C)C1CCN(c2nccc(NC(c3ccccc3)c3ccccc3)n2)CC1 | 42.5 | 87 | –
12 | CC(C)(C)OC(=O)N1CCN(c2nccc(NC(c3ccccc3)c3ccccc3)n2)CC1 | > 100 | > 100 | –
13 | OCCN1CCN(c2nccc(NC(c3ccccc3)c3ccccc3)n2)CC1 | 21.6 | 59.5 | –
14 | c1ccc(C(Nc2ccnc(N3CCNCC3)n2)c2ccccc2)cc1 | 31.3 | > 100 | –
15 | COCCN1CCN(c2nccc(NC(c3ccccc3)c3ccccc3)n2)CC1 | 39.2 | 28.4 | –
16 | CC(C)N1CCN(c2nccc(NC(c3ccccc3)c3ccccc3)n2)CC1 | 20.3 | 9.7 | –
17 | CC1CCN(c2nccc(NCc3cccc4ccccc34)n2)CC1 | – | – | 2.2
18 | CCCN1CCN(c2nccc(NC(c3ccccc3)c3ccccc3)n2)CC1 | 14.6 | 17.5 | –
19 | CC(C)C1CCN(c2nccc(NCc3cccc4ccccc34)n2)CC1 | 16.7 | 9.1 | –
20 | CC(=O)N1CCN(c2nccc(NC(c3ccccc3)c3ccccc3)n2)CC1 | 29 | > 100 | –
21 | COCCN1CCN(c2nccc(NCc3cccc4ccccc34)n2)CC1 | 11.7 | 26.5 | –
